The values below come from US10869924B2, “PD-L1 antagonist combination treatments” (MERCK PATENT GMBH, priority 2015, dated 2020).

This test concerns B16F10 melanoma. The experiment in a line: Subcutaneous B16F10 melanoma model, avelumab, anti-4-1BB and anti-OX40 (Example 6). As to conditions: anti-OX40 3 mg/kg, anti-4-1BB 1 mg/kg, avelumab 20 mg/kg, ip, 3 doses 3 to 4 days apart, C57BL/6 mice. The class given is in vivo, mouse. As to the method: Two murine models were used to evaluate the therapeutic efficacy of combinatorial treatment of anti-OX40 antibody, anti-4-1 BB and Avelumab. Six (6)- to 8-week old female C57BL/6 mice or Balb/C mice were purchased from the Jackson Laboratories. All animals were housed in a pathogen free vivarium facility at Rinat and experiments were conducted according to the protocols in accordance with the Institutional Animal Care and Use Committee (IACUC) guidelines.
The B16F10 melanoma cell line was purchased from American Type Culture Collection (ATCC). The MC38 colon carcinoma cell line was kindly provided by Dr. Antoni Ribas at University of California, Los Angeles, Calif. Cells were cultured in Dulbecco's Modified Eagle's Medium (DMEM) supplemented with 10% fetal bovine serum (FBS), 2 mM L-glutamine at 37° C. in 5% carbon dioxide (CO2). Cells growing in an exponential growth phase were harvested and used for tumor inoculation.
Therapeutic mouse anti-OX40 antibodies with either the mIgG1 or the mIgG2a isotype (anti-OX40 mIgG1 and anti-OX40 mIgG2a, respectively) were derived from parental clone OX86 in house. Therapeutic mouse anti-mouse 4-1BB antibody (mouse immunoglobulin G1 [mIgG1]), derived from the parental clone MAB9371 (R&D Systems), was prepared in-house. Avelumab was provided by Merck Serono. Isotype control mIgG1 (clone: MOPC-21) and mIgG2a (C1.18.4) was purchased from BioXcell. Human IgG1 was prepared in-house. Anti-OX40 antibody, anti-4-1BB antibody, and avelumab were dosed at 3 mg/kg, 1 mg/kg and 20 mg/kg in the B16F10 model and 1 mg/kg, 1 mg/kg and 10 mg/kg in the MC38 model, respectively, in phosphate buffered saline (PBS) (Life Technologies), and dosed at 0.2 mL per mouse intraperitoneally (ip) for 3 doses 3 to 4 days apart.
C57BL/6 mice were inoculated subcutaneously at the right flank with 0.3×10^6 B16F10 cells in 0.1 mL of PBS. Balb/C mice were inoculated subcutaneously at the right flank with 0.5×10^6 MC38 cells in 0.1 mL of PBS. When tumors reached target size, mice were randomized into treatment groups. Treatment was started on the same day as randomization. Tumor size was measured twice weekly in 2 dimensions using a caliper, and the volume was calculated in cubic millimeters using the formula: V=0.5 L×W^2 where L is the longest diameter of the tumor and W is the diameter perpendicular to L. Body weight was recorded weekly.
Results are summarized in Table 9 (B16F10 melanoma) and Table 10 (MC38 colon carcinoma) below (mean tumor size±SEM). Statistical analyses were performed using GraphPad Prism 6.0. 2-way ANOVA was applied to compare the statistical differences among multiple groups relative to the isotype control or other treatment groups. P<0.05 was considered as significant difference. Tumor measurements are in mm^3.

“Avelumab: fully human mAb of the IgG1 isotype that specifically targets and blocks PD-L1”: the “Mean Tumor Size” value (Day 12 post-tumor inoculation (start of treatment)) amounted to 77 mm^3; the “Mean Tumor Size” value (Day 15 post-tumor inoculation) worked out at 236 mm^3; the “Mean Tumor Size” value (Day 18 post-tumor inoculation) amounted to 396 mm^3; the “Mean Tumor Size” value (Day 22 post-tumor inoculation) was 750 mm^3; the “Mean Tumor Size” value (Day 25 post-tumor inoculation) is 1291 mm^3; the “Mean Tumor Size” value (Day 29 post-tumor inoculation) is given as 2159 mm^3. Also, the “Mean Tumor Size” value (Day 32 post-tumor inoculation) was 2352 mm^3 and the “Mean Tumor Size” value (Day 32 post-tumor inoculation, listed as avelumab) is 2352±264 mm^3.
